Source: ChEMBL document CHEMBL3885881, “DrugMatrix”

Species on record: Rattus norvegicus
Experiment: DrugMatrix - Regimen: Daily Repeat
Type: toxicity, organism-based, Sprague-Dawley
Parameters: regimen Daily Repeat, gender Male, age 6-8 weeks
Settings: in vivo, po, 266 mg/kg, route oral GAVAGE, dose level High, vehicle 100 % WATER; for ABSOLUTE BASOPHIL / ABSOLUTE EOSINOPHIL / ABSOLUTE LYMPHOCYTE / ABSOLUTE MONOCYTE / ABSOLUTE SEGMENTED NEUTROPHIL / BASOPHIL / EOSINOPHIL / ERYTHROCYTE COUNT / HEMATOCRIT / HEMOGLOBIN / LEUKOCYTE COUNT / LYMPHOCYTE / MEAN CORPUSCULAR HEMOGLOBIN / MEAN CORPUSCULAR HEMOGLOBIN CONCENTRATION / MEAN CORPUSCULAR VOLUME / MONOCYTE / NEUTROPHIL / NUCLEATED RED BLOOD CELLS / PLATELET COUNT: tissue Blood; for ALANINE AMINOTRANSFERASE / ALBUMIN / ALKALINE PHOSPHATASE / ASPARTATE AMINOTRANSFERASE / BLOOD UREA NITROGEN / CARBON DIOXIDE / CHLORIDE / CHOLESTEROL / CREATINE PHOSPHOKINASE / CREATININE / GLUCOSE / LACTATE DEHYDROGENASE / LIPASE / PHOSPHORUS / POTASSIUM / SODIUM / TOTAL BILIRUBIN / TOTAL PROTEIN / URIC ACID: tissue Plasma

SMILES: O=C(NCCN1CCOCC1)c1ccc(Cl)cc1 [MOCLOBEMIDE]
- ABSOLUTE BASOPHIL (72 h, time 3 day): 0 CELLS/uL
- ABSOLUTE EOSINOPHIL (72 h, time 3 day): 201.33 CELLS/uL
- ABSOLUTE LYMPHOCYTE (72 h, time 3 day): 17920 CELLS/uL
- ABSOLUTE MONOCYTE (72 h, time 3 day): 282 CELLS/uL
- ABSOLUTE SEGMENTED NEUTROPHIL (72 h, time 3 day): 1130 CELLS/uL
- BASOPHIL (72 h, time 3 day): 0%
- EOSINOPHIL (72 h, time 3 day): 0.67%
- ERYTHROCYTE COUNT (72 h, time 3 day): 5.8 x10E6/uL
- HEMATOCRIT (72 h, time 3 day): 36.67%
- HEMOGLOBIN (72 h, time 3 day): 14.43 G/DL
- LEUKOCYTE COUNT (72 h, time 3 day): 19.53 x10E3/uL
- LYMPHOCYTE (72 h, time 3 day): 92%
- MEAN CORPUSCULAR HEMOGLOBIN (72 h, time 3 day): 24.93 pg
- MEAN CORPUSCULAR HEMOGLOBIN CONCENTRATION (72 h, time 3 day): 39.37 G/DL
- MEAN CORPUSCULAR VOLUME (72 h, time 3 day): 63.27 fL
- MONOCYTE (72 h, time 3 day): 1.33%
- NEUTROPHIL (72 h, time 3 day): 6%
- NUCLEATED RED BLOOD CELLS (72 h, time 3 day): 0 /100WBC
- PLATELET COUNT (72 h, time 3 day): 1228 x10E3/uL
- ALANINE AMINOTRANSFERASE (72 h, time 3 day): 45 u/L
- ALBUMIN (72 h, time 3 day): 4.27 G/DL
- ALKALINE PHOSPHATASE (72 h, time 3 day): 348 u/L
- ASPARTATE AMINOTRANSFERASE (72 h, time 3 day): 85.67 u/L
- BLOOD UREA NITROGEN (72 h, time 3 day): 15.67 mg/dL
- CARBON DIOXIDE (72 h, time 3 day): 27 mmol/L
- CHLORIDE (72 h, time 3 day): 102 MEQ/L
- CHOLESTEROL (72 h, time 3 day): 91.67 mg/dL
- CREATINE PHOSPHOKINASE (72 h, time 3 day): 407 u/L
- CREATININE (72 h, time 3 day): 0.2 mg/dL
- GLUCOSE (72 h, time 3 day): 135.33 mg/dL
- LACTATE DEHYDROGENASE (72 h, time 3 day): 202.33 u/L
- LIPASE (72 h, time 3 day): 9.67 u/L
- PHOSPHORUS (72 h, time 3 day): 12.33 mg/dL
- POTASSIUM (72 h, time 3 day): 5.98 MEQ/L
- SODIUM (72 h, time 3 day): 144.7 MEQ/L
- TOTAL BILIRUBIN (72 h, time 3 day): 0.13 mg/dL
- TOTAL PROTEIN (72 h, time 3 day): 5.67 G/DL
- URIC ACID (72 h, time 3 day): 1.47 mg/dL
- ABSOLUTE BASOPHIL (120 h, time 5 day): 0 CELLS/uL
- ABSOLUTE EOSINOPHIL (120 h, time 5 day): 57.67 CELLS/uL
- ABSOLUTE LYMPHOCYTE (120 h, time 5 day): 16939.67 CELLS/uL
- ABSOLUTE MONOCYTE (120 h, time 5 day): 123 CELLS/uL
- ABSOLUTE SEGMENTED NEUTROPHIL (120 h, time 5 day): 946.33 CELLS/uL
- BASOPHIL (120 h, time 5 day): 0%
- EOSINOPHIL (120 h, time 5 day): 0.33%
- ERYTHROCYTE COUNT (120 h, time 5 day): 6.33 x10E6/uL
- HEMATOCRIT (120 h, time 5 day): 38.47%
- HEMOGLOBIN (120 h, time 5 day): 15.33 G/DL
- LEUKOCYTE COUNT (120 h, time 5 day): 18.07 x10E3/uL
- LYMPHOCYTE (120 h, time 5 day): 93.67%
- MEAN CORPUSCULAR HEMOGLOBIN (120 h, time 5 day): 24.23 pg
- MEAN CORPUSCULAR HEMOGLOBIN CONCENTRATION (120 h, time 5 day): 39.87 G/DL
- MEAN CORPUSCULAR VOLUME (120 h, time 5 day): 60.77 fL
- MONOCYTE (120 h, time 5 day): 0.67%
- NEUTROPHIL (120 h, time 5 day): 5.33%
- NUCLEATED RED BLOOD CELLS (120 h, time 5 day): 0 /100WBC
- PLATELET COUNT (120 h, time 5 day): 1501 x10E3/uL
- ALANINE AMINOTRANSFERASE (120 h, time 5 day): 44 u/L
- ALBUMIN (120 h, time 5 day): 4.3 G/DL
- ALKALINE PHOSPHATASE (120 h, time 5 day): 312.33 u/L
- ASPARTATE AMINOTRANSFERASE (120 h, time 5 day): 75.67 u/L
- BLOOD UREA NITROGEN (120 h, time 5 day): 16 mg/dL
- CARBON DIOXIDE (120 h, time 5 day): 26 mmol/L
- CHLORIDE (120 h, time 5 day): 100.67 MEQ/L
- CHOLESTEROL (120 h, time 5 day): 75.67 mg/dL
- CREATINE PHOSPHOKINASE (120 h, time 5 day): 226.33 u/L
- CREATININE (120 h, time 5 day): 0.15 mg/dL
- GLUCOSE (120 h, time 5 day): 155.33 mg/dL
- LACTATE DEHYDROGENASE (120 h, time 5 day): 246.67 u/L
- LIPASE (120 h, time 5 day): 10.33 u/L
- PHOSPHORUS (120 h, time 5 day): 12.43 mg/dL
- POTASSIUM (120 h, time 5 day): 6.84 MEQ/L
- SODIUM (120 h, time 5 day): 143.43 MEQ/L
- TOTAL BILIRUBIN (120 h, time 5 day): 0.17 mg/dL
- TOTAL PROTEIN (120 h, time 5 day): 6.2 G/DL
- URIC ACID (120 h, time 5 day): 2.3 mg/dL
